Test results as given in ChEMBL document CHEMBL5104131, “Pyrimidine-conjugated fluoroquinolones as new potential broad-spectrum antibacterial agents” (Bioorg Med Chem Lett, 2022).
Values after ≈ are worked out from the molar mass of the structure shown.

How the values were obtained:
[1] = system: Pseudomonas aeruginosa; experiment: Antibacterial activity against Pseudomonas aeruginosa ATCC 27853 assessed as bacterial growth inhibition by serial dilution method; type: functional
[2] = system: Staphylococcus aureus; experiment: Antibacterial activity against Staphylococcus aureus ATCC 25923 assessed as bacterial growth inhibition by serial dilution method; type: functional
[3] = system: Acinetobacter baumannii; experiment: Antibacterial activity against Acinetobacter baumannii assessed as bacterial growth inhibition by serial dilution method; type: functional
[4] = system: Staphylococcus aureus; experiment: Antibacterial activity against Staphylococcus aureus ATCC 29213 assessed as bacterial growth inhibition by serial dilution method; type: functional
[5] = system: Staphylococcus aureus; experiment: Antibacterial activity against Staphylococcus aureus assessed as bacterial growth inhibition by serial dilution method; type: functional
[6] = system: Pseudomonas aeruginosa; experiment: Antibacterial activity against Pseudomonas aeruginosa assessed as bacterial growth inhibition by serial dilution method; type: functional
[7] = system: Escherichia coli; experiment: Antibacterial activity against Escherichia coli ATCC 25922 assessed as bacterial growth inhibition by serial dilution method; type: functional
[8] = system: Candida tropicalis; experiment: Antifungal activity against Candida tropicalis assessed as inhibition of fungal growth; type: functional
[9] = system: Escherichia coli; experiment: Antibacterial activity against Escherichia coli assessed as bacterial growth inhibition by serial dilution method; type: functional
[10] = system: Klebsiella pneumoniae; experiment: Antibacterial activity against Klebsiella pneumoniae assessed as bacterial growth inhibition by serial dilution method; type: functional
[11] = system: Staphylococcus aureus; experiment: Antibacterial activity against methicillin-resistant Staphylococcus aureus N315 assessed as bacterial growth inhibition by serial dilution method; type: functional
[12] = system: Enterococcus faecalis; experiment: Antibacterial activity against Enterococcus faecalis assessed as bacterial growth inhibition by serial dilution method; type: functional
[13] = system: Aspergillus fumigatus; experiment: Antifungal activity against Aspergillus fumigatus assessed as inhibition of fungal growth; type: functional
[14] = system: Candida parapsilosis; experiment: Antifungal activity against Candida parapsilosis ATCC 22019 assessed as inhibition of fungal growth; type: functional; details: Lodderomyces parapsilosis
[15] = Cytotoxicity against human HaCaT cells assessed as cell viability at 12.5 ug/ml by CCK-8 assay relative to control; type: toxicity, cell-based; details: at 12.5 µg/mL, read-out: Activity
[16] = Cytotoxicity against human HaCaT cells assessed as cell viability at 50 ug/ml by CCK-8 assay relative to control; type: toxicity, cell-based; details: at 50 µg/mL, read-out: Activity

Row | Compound | MIC [1] [µg/mL] | MIC [2] [µg/mL] | MIC [3] [µg/mL] | MIC [4] [µg/mL] | MIC [5] [µg/mL] | MIC [6] [µg/mL] | MIC [7] [µg/mL] | MIC [8] [µg/mL] | MIC [9] [µg/mL] | MIC [10] [µg/mL] | MIC [11] [µg/mL] | MIC [12] [µg/mL] | MIC [13] [µg/mL] | MIC [14] [µg/mL] | viability at 12.5 ug/ml [15] [%] | viability at 50 ug/ml [16] [%]
1 | CCc1cnc(N2CCN(c3cc4c(cc3F)c(=O)c(C(=O)O)cn4C3CC3)CC2)nc1 | 64 (≈ 146 µM) | 8 (≈ 18.3 µM) | 64 (≈ 146 µM) | 64 (≈ 146 µM) | 1 (≈ 2.29 µM) | 4 (≈ 9.14 µM) | 4 (≈ 9.14 µM) | 2 (≈ 4.57 µM) | 8 (≈ 18.3 µM) | 256 (≈ 585 µM) | 128 (≈ 293 µM) | 64 (≈ 146 µM) | – | – | – | –
2 | CCn1cc(C(=O)O)c(=O)c2cc(F)c(N3CCN(c4ncc(OC)cn4)CC3)cc21 | 128 (≈ 299 µM) | 32 (≈ 74.9 µM) | 128 (≈ 299 µM) | 8 (≈ 18.7 µM) | 2 (≈ 4.68 µM) | 32 (≈ 74.9 µM) | 2 (≈ 4.68 µM) | – | 64 (≈ 150 µM) | 64 (≈ 150 µM) | 1 (≈ 2.34 µM) | 1 (≈ 2.34 µM) | 2 (≈ 4.68 µM) | – | – | –
3 | OC(Cn1cncn1)(Cn1cncn1)c1ccc(F)cc1F [FLUCONAZOLE] | – | – | – | – | – | – | – | – | – | – | – | – | 256 (≈ 836 µM) | – | – | –
4 | CCn1cc(C(=O)O)c(=O)c2cc(F)c(N3CCN(c4ncc(F)cn4)CC3)cc21 | 256 (≈ 616 µM) | 16 (≈ 38.5 µM) | > 256 | 16 (≈ 38.5 µM) | 4 (≈ 9.63 µM) | 32 (≈ 77 µM) | 128 (≈ 308 µM) | – | 16 (≈ 38.5 µM) | 128 (≈ 308 µM) | 64 (≈ 154 µM) | 4 (≈ 9.63 µM) | – | – | – | –
5 | COc1cnc(N2CCN(c3cc4c(cc3F)c(=O)c(C(=O)O)cn4C3CC3)CC2)nc1 | 32 (≈ 72.8 µM) | 8 (≈ 18.2 µM) | 1 (≈ 2.28 µM) | 2 (≈ 4.55 µM) | 256 (≈ 583 µM) | 64 (≈ 146 µM) | 4 (≈ 9.1 µM) | 2 (≈ 4.55 µM) | 64 (≈ 146 µM) | 16 (≈ 36.4 µM) | 32 (≈ 72.8 µM) | 32 (≈ 72.8 µM) | – | 2 (≈ 4.55 µM) | – | –
6 | Cc1ccnc(N2CCN(c3cc4c(cc3F)c(=O)c(C(=O)O)cn4C3CC3)CC2)n1 | 64 (≈ 151 µM) | 4 (≈ 9.45 µM) | 2 (≈ 4.72 µM) | 32 (≈ 75.6 µM) | 256 (≈ 605 µM) | 64 (≈ 151 µM) | 8 (≈ 18.9 µM) | – | 64 (≈ 151 µM) | 64 (≈ 151 µM) | 64 (≈ 151 µM) | 64 (≈ 151 µM) | – | – | – | –
7 | CCn1cc(C(=O)O)c(=O)c2cc(F)c(N3CCN(c4ncccn4)CC3)cc21 | 128 (≈ 322 µM) | 8 (≈ 20.1 µM) | 64 (≈ 161 µM) | 32 (≈ 80.5 µM) | 64 (≈ 161 µM) | 16 (≈ 40.3 µM) | 64 (≈ 161 µM) | – | 16 (≈ 40.3 µM) | 4 (≈ 10.1 µM) | 2 (≈ 5.03 µM) | 8 (≈ 20.1 µM) | 2 (≈ 5.03 µM) | – | – | –
8 | O=C(O)c1cn(C2CC2)c2cc(N3CCN(c4ncccn4)CC3)c(F)cc2c1=O | 32 (≈ 78.2 µM) | 64 (≈ 156 µM) | > 256 | 32 (≈ 78.2 µM) | 4 (≈ 9.77 µM) | 8 (≈ 19.5 µM) | 1 (≈ 2.44 µM) | – | 8 (≈ 19.5 µM) | 64 (≈ 156 µM) | 16 (≈ 39.1 µM) | 2 (≈ 4.88 µM) | 1 (≈ 2.44 µM) | – | > 90 | 70
9 | CCc1cnc(N2CCN(c3cc4c(cc3F)c(=O)c(C(=O)O)cn4CC)CC2)nc1 | 128 (≈ 301 µM) | 2 (≈ 4.7 µM) | 128 (≈ 301 µM) | 64 (≈ 150 µM) | 8 (≈ 18.8 µM) | 2 (≈ 4.7 µM) | 1 (≈ 2.35 µM) | – | 16 (≈ 37.6 µM) | 2 (≈ 4.7 µM) | 2 (≈ 4.7 µM) | 2 (≈ 4.7 µM) | – | – | – | –
10 | O=C(O)c1cn(C2CC2)c2cc(N3CCNCC3)c(F)cc2c1=O [CIPROFLOXACIN] | 1 (≈ 3.02 µM) | 2 (≈ 6.04 µM) | – | 0.5 (≈ 1.51 µM) | 2 (≈ 6.04 µM) | – | – | – | – | 2 (≈ 6.04 µM) | 2 (≈ 6.04 µM) | 1 (≈ 3.02 µM) | – | – | – | –
